According to US9926297B2, “Bicyclic AZA compounds as muscarinic M1 receptor and/or M4 receptor agonists” (Heptares Therapeutics Limited, priority 2014, dated 2018):

Experiments:
[1] = molecular target: T1, human muscarinic M1 receptor (Homo sapiens, UniProt P11229); experiment: Alphascreen Surefire phospho-ERK1/2 functional assay, M1; assay type: cell-based; conditions: for EC50: read-out: pEC50 M1 (converted); for Emax: CHO, read-out: % Emax cf. ACh, M1, CHO cells stably expressing human M1; for Emax / % Emax cf. ACh, M1: relative to ACh
T1 sequence (P11229 1-460): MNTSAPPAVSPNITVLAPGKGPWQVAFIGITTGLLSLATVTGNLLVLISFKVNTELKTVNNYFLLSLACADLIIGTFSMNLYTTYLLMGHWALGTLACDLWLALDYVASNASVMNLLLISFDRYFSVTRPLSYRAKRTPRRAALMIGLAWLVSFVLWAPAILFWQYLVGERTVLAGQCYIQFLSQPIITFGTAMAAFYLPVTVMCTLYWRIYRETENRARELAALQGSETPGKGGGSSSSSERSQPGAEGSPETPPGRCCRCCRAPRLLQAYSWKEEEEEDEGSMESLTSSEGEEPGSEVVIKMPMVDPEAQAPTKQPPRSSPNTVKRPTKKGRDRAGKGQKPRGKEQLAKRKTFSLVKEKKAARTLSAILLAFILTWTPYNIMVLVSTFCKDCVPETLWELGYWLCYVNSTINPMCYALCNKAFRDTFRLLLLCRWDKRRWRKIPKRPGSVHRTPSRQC

[2] = molecular target: human muscarinic M3 receptor (Homo sapiens, UniProt P20309); experiment: Alphascreen Surefire phospho-ERK1/2 functional assay, M3; conditions: for Emax: CHO, read-out: % Emax cf. ACh, M3, CHO cells stably expressing human M3; for Emax / % Emax cf. ACh, M3: relative to ACh; for EC50: pEC50 M3, CHO cells stably expressing human M3
human muscarinic M3 receptor, sequence (P20309 whole entry): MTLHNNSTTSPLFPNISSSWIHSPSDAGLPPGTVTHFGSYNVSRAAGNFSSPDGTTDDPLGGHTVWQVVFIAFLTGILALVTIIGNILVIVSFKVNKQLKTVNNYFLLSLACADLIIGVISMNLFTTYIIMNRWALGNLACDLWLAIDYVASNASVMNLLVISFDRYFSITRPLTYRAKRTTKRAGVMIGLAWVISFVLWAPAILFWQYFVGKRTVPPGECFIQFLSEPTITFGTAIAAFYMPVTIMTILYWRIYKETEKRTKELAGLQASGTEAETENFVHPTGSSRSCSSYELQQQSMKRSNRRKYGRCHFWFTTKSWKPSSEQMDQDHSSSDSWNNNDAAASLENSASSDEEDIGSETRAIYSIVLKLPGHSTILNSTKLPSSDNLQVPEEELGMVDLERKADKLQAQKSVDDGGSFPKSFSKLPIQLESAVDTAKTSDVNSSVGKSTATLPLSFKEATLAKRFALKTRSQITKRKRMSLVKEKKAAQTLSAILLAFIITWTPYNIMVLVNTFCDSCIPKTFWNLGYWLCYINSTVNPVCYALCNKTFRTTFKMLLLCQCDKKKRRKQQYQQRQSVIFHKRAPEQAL
Method: (§1) CHO cells stably expressing the human muscarinic M1, M2, M3 or M4 receptor were plated (25K/well) onto 96-well tissue culture plates in MEM-alpha+10% dialysed FBS. Once adhered, cells were serum-starved overnight. Agonist stimulation was performed by the addition of 5 μL agonist to the cells for 5 min (37° C.). Media was removed and 50 μL of lysis buffer added. After 15 min, a 4 μL sample was transferred to 384-well plate and 7 μL of detection mixture added. Plates were incubated for 2 h with gentle agitation in the dark and then read on a PHERAstar plate reader.
(§2) pEC50 and Emax figures were calculated from the resulting data for each receptor subtype.

[3] = molecular target: T2, human muscarinic M2 receptor (Homo sapiens, UniProt P08172); experiment: Alphascreen Surefire phospho-ERK1/2 functional assay, M2; conditions: for Emax: CHO, read-out: % Emax cf. ACh, M2, CHO cells stably expressing human M2; for Emax / % Emax cf. ACh, M2: relative to ACh
T2 sequence (P08172 1-466): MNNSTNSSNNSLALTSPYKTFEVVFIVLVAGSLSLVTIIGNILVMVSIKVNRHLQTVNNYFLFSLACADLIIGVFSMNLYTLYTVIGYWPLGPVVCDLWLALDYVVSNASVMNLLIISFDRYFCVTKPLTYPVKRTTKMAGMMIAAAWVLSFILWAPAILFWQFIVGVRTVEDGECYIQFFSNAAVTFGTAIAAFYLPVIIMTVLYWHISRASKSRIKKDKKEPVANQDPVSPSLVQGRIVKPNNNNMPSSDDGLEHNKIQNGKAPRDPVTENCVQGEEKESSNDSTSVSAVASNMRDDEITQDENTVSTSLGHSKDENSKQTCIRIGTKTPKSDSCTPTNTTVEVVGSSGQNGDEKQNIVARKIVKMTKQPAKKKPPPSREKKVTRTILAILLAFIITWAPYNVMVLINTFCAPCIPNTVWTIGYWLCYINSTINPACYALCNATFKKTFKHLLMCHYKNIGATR

[4] = molecular target: T3, human muscarinic M4 receptor (Homo sapiens, UniProt P08173); experiment: Alphascreen Surefire phospho-ERK1/2 functional assay, M4; assay type: cell-based; conditions: for EC50 / % Emax cf. ACh, M4: CHO cells stably expressing human M4; for EC50: phospho-ERK1/2, * = variable results, read-out: pEC50 M4 (converted); for Emax: CHO, read-out: % Emax cf. ACh, M4, CHO cells stably expressing human M4; for Emax / % Emax cf. ACh, M4: relative to ACh
T3 construct: expressed in transfected cells
T3 sequence (P08173 1-479): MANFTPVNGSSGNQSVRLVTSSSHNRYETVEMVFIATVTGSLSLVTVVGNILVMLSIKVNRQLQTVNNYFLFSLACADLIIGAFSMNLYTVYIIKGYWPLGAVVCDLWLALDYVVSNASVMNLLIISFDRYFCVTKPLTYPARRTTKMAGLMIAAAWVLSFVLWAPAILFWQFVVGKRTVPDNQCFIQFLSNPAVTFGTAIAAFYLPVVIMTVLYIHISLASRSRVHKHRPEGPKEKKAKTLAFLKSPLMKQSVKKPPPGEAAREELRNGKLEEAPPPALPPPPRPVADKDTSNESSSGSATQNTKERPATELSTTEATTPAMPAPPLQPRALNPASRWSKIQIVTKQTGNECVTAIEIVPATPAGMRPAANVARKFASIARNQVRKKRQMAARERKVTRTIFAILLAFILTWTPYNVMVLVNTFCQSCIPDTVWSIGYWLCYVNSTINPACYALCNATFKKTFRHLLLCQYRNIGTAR
Method: as §1, §2

[5] = CHO cells stably expressing human M1, phospho-ERK1/2, * = variable results
[6] = phospho-ERK1/2, * = variable results
[7] = CHO cells stably expressing human M1
[8] = CHO cells stably expressing human M3
[9] = CHO cells stably expressing human M2

Row | Compound | EC50 [1, 5] | Emax [1] | Emax [2] | EC50 [2, 6] | EC50 [3] | Emax [3] | EC50 [4] | Emax [4] | % Emax cf. ACh, M1 [1, 7] | % Emax cf. ACh, M3 [2, 8] | % Emax cf. ACh, M2 [3, 9] | % Emax cf. ACh, M4 [4] | pEC50 M3 ([2]; CHO cells stably expressing human M3, phospho-ERK1/2, * = variable results) | pEC50 M2 ([3]; CHO cells stably expressing human M2, phospho-ERK1/2, * = variable results) | pEC50 M1 [1, 5]
1 | CCOC(=O)N1CCC2(CC(N3CCC([C@@H]4CCCN4C(=O)OC4CCC4)CC3)C2)C1 (single isomer, unassigned) [2-43 Isomer 2] | 3160 nM | 19% | 5% | > 20000 nM | > 20000 nM | 4% | 50.1 nM | 47% |  |  |  |  |  |  | 
2 | CCOC(=O)N1CCC2(CC(N3CCC([C@@H]4CCCN4C(=O)NCCF)CC3)C2)C1 (single isomer, unassigned) [2-44 Isomer 2] | 316 nM | 71% | 8% | > 20000 nM | > 20000 nM | 4% | 5.01 nM | 100% |  |  |  |  |  |  | 
3 | CCOC(=O)N1CCC2(CC(N3CCC([C@@H]4CCCN4C(=O)NCC(F)F)CC3)C2)C1 (single isomer, unassigned) [2-45 Isomer 2] | 251 nM | 67% | 5% | > 20000 nM | > 20000 nM | 5% | 5.01 nM | 111% |  |  |  |  |  |  | 
4 | CCOC(=O)N1CCC2(CC(N3CCC([C@@H]4CCCN4C(=O)COC)CC3)C2)C1 (single isomer, unassigned) [2-46 Isomer 2] | 1580 nM | 32% | 8% | > 20000 nM | > 20000 nM | 5% | 15.8 nM | 85% |  |  |  |  |  |  | 
5 | CCOC(=O)N1CCC2(CC(N3CCC([C@@H]4CCCN4C(=O)OCC(F)(F)F)CC3)C2)C1 (single isomer, unassigned) [2-48 Isomer 2] | 316 nM | 34% | 5% | > 20000 nM | > 20000 nM | 3% | 10 nM | 81% |  |  |  |  |  |  | 
6 | CCOC(=O)N1CCC2(CC(N3CCC([C@@H]4CCCN4C(=O)OCCOC)CC3)C2)C1 (single isomer, unassigned) [2-50 Isomer 2] | 251 nM | 63% | 2% | > 20000 nM | > 20000 nM | 4% | 25.1 nM | 73% |  |  |  |  |  |  | 
7 | CCOC(=O)N1CCC2(CC(N3CCC([C@@H]4CCCN4C(=O)OCCN(C)C)CC3)C2)C1 (single isomer, unassigned) [2-51 Isomer 2] | > 20000 nM | 237% | 3% | > 20000 nM | > 20000 nM | 1% | 63.1 nM | 53% |  |  |  |  |  |  | 
8 | CCOC(=O)N1CCC2(CC(N3CCC([C@@H]4CCCN4C(=O)CO)CC3)C2)C1 (single isomer, unassigned) [2-52 Isomer 2] | 631 nM | 49% | 4% | > 20000 nM | > 20000 nM | 4% | 20 nM | 85% |  |  |  |  |  |  | 
9 | CCOC(=O)N1CCC2(CC(N3CCC([C@@H]4CCCN4C(=O)CC(F)(F)F)CC3)C2)C1 (single isomer, unassigned) [2-53 Isomer 2] | 79.4 nM | 109% | 21% | 6310 nM | > 20000 nM | 10% | 7.94 nM | 126% |  |  |  |  |  |  | 
10 | CCOC(=O)N1CCC2(CC(N3CCC([C@@H]4CCCN4C(=O)NCc4ccccn4)CC3)C2)C1 (single isomer, unassigned) [2-54 Isomer 1] | > 20000 nM |  |  | > 20000 nM | > 20000 nM |  | 15.8 nM |  | 1% | 0% | 50% | 45% |  |  | 
11 | CCOC(=O)N1CCC2(CC(N3CCC([C@@H]4CCCN4C(=O)NCc4ccccn4)CC3)C2)C1 (single isomer, unassigned) [2-54 Isomer 2] | 50.1 nM |  |  |  |  |  | 1.26 nM |  | 86% | 23% | 8% | 134% | < 4.7 | < 4.7 | 
12 | CCOC(=O)N1CCC2(CC(N3CCC([C@@H]4CCCN4C(=O)N(C)CC(F)(F)F)CC3)C2)C1 (single isomer, unassigned) [2-55 Isomer 2] |  |  | 12% | > 20000 nM | > 20000 nM | 22% | 25.1 nM |  | 7% |  |  | 52% |  |  | < 4.7
13 | CCOC(=O)N1CCC2(CC(N3CCC([C@@H]4CCCN4C(=O)NC4COC4)CC3)C2)C1 (single isomer, unassigned) [2-56 Isomer 2] | 631 nM | 96% | 0% | > 20000 nM | > 20000 nM | 8% | 5.01 nM | 134% |  |  |  |  |  |  | 
14 | CCOC(=O)N1CCC2(CC(N3CCC([C@@H]4CCCN4C(=O)N(C)C4COC4)CC3)C2)C1 (single isomer, unassigned) [2-57 Isomer 2] | > 20000 nM | 16% | 4% | > 20000 nM | > 20000 nM | 25% | 31.6 nM | 117% |  |  |  |  |  |  | 
15 | CCOC(=O)N1CCC2(CC(N3CCC([C@@H]4CCCN4C(=S)CC)CC3)C2)C1 (single isomer, unassigned) [2-58 Isomer 2] | 1000 nM | 66% | 9% | > 20000 nM | > 20000 nM | 45% | 31.6 nM | 156% |  |  |  |  |  |  | 
16 | CCOC(=O)N1CCC2(CC(N3CCC([C@@H]4C[C@H](F)CN4C(=O)CC)CC3)C2)C1 (single isomer, unassigned) [2-59 Isomer 2] | 3160 nM | 28% | 7% | > 20000 nM | > 20000 nM | 11% | 251 nM | 67% |  |  |  |  |  |  | 
17 | CCOC(=O)N1CCC2(CC(N3CCC([C@@H]4CCCN4C(=O)CCc4ccccn4)CC3)C2)C1 (single isomer, unassigned) [2-62 Isomer 2] | > 20000 nM | 20% | 8% | > 20000 nM | > 20000 nM | 6% | 15.8 nM | 65% |  |  |  |  |  |  | 
18 | CCOC(=O)N1CCC2(CC(N3CCC([C@@H]4CCCN4C(=O)N(C)Cc4ccccn4)CC3)C2)C1 (single isomer, unassigned) [2-63 Isomer 2] | 251 nM | 34% | 4% | > 20000 nM | > 20000 nM | 0% | 63.1 nM | 60% |  |  |  |  |  |  | 
19 | CCOC(=O)N1CCC2(CC(N3CCC([C@@H]4CCCN4C(=O)OCc4ccccn4)CC3)C2)C1 (single isomer, unassigned) [2-64 Isomer 2] | > 20000 nM | 12% | 8% | > 20000 nM | > 20000 nM | 6% | 3.16 nM | 41% |  |  |  |  |  |  | 
